This is an account of results in patent US4908441A, “Deoxyadenosine compounds and methods of making and using the same” (Warner-Lambert Company, priority 1988, dated 1990).

Data set [1] is described as follows: water solubility. It counts as physicochemical.
For data set [2] the following is noted: mammals and Phase 1 clinical trial in patients; Carson et al. 1984; cited from earlier work.
The subject of data set [3] is Colon 08. As to the kind of experiment: tumor growth delay assay, Colon 08. Format: in vivo, mouse (CD2F1 hybrid). The settings on record: 15 mg/kg (dose of greatest activity), IP. Also on record: key to Rating: Tx: Toxic; ++++: High Activity; +++: Marked Activity; ++: Moderate Activity; +: Slight Activity; -: Inactive; UT: Unsatisfactory Test. Here is the method: (§1) A test protocol to show activity of the compounds of the present invention against solid tumors was that described below, for example, in inhibiting the growth of colon tumors.
(§2) The tumor growth delay assay assesses the antitumor activity of a test agent by measurement of the treatment-induced delay of tumor growth.
(§3) Test animals were CD2F1 hybrid mice derived from the inbred strain of tumor origin. After the required mice were randomized they received 30-50 mg subcutaneous implants of either colon 36 or colon 8 by trocar on Day 0. Samples of each donor tumor were incubated in thioglycolate media as a check for contamination of the tumor material. After tumor inoculation mice were rerandomized and distributed at 10 mice per treatment group (20 for control).
(§4) Drug treatment was initiated when tumors reached measurement in two dimensions by the formula:
(§5) tumor weight (mg)=(a+b^2)
(§6) where a and b are the tumor length and width, respectively. Drug, suspended in methyl-cellulose, was administered intraperitoneally Q4HX3 for nine consecutive days in a range of toxic to nontoxic doses. Tumor-bearing control groups were injected with methyl-cellulose. Animal survival was monitored daily. Tumors were measured twice weekly and animal weights recorded on a weekly basis. All dead mice were autopsied to determine the cause of death (drug or tumor). Any mouse bearing a tumor larger than the smallest lethal control tumor for two consecutive measurements was sacrificed, provided that greater than 25 days had elapsed since last treatment. Any tumor-free mouse was retained long enough so that a single surviving tumor cell at last treatment could grow to an unmistakable subcutaneous tumor.
(§7) T/C was calculated based on the difference in days required for the treated (T) and control (C) groups to reach an evaluation size of 1000 mg. Gross and net logs of cell kill were determined based on standard methodologies. The degree of activity or rating is a function of cell kill. Activity is defined in accordance with the standard methodologies as follows: […]

Data set [4] deals with L1210 leukemia cells. The experiment in a line: in vivo assay for antileukemic activity (median lifespan). Also noted: species or system mouse (male CD2 F1); key to % T/C Animals (1): Tx = Toxic. Particulars: IP once daily Days 3-7. The method, then: Another test protocol is the in vivo assay for antileukemic activity. This assay is carried out with male CD2 F1 mice (six per treatment group) that weigh 22-24 grams at first treatment. L1210 leukemia cells are harvested from the peritoneal ascites fluid of a leukemic male DBA2 mouse and diluted with sterile 0.9% saline containing 2.1% W/V bovine serum albumin, 2000 U/ml penicillin, and 0.3 mg/ml streptomycin. The cells are counted with a Coulter counter. The mice are randomized, inoculated with 10^4 L1210 cells (0.5 ml, IP), and rerandomized to treatment or control groups on Day 0. The test compound is dissolved in 10% aqueous dimethylsulfoxide. Treatment groups are injected IP with 0.5 ml of freshly made DMSO solutions of the test compound once daily on Days 3-7. Control mice are treated with 0.5 ml 10% dimethylsulfoxide. All mice are weighed on Days 3 and 7 and all dying mice are autopsied to confirm the presence of advanced leukemia. A % T/C value [T/C computed as (median lifespan of the treated group/median lifespan of the control group)] greater than 125 is considered as showing significant activity. The results for nucleotide compounds and compositions of the invention exemplified by 3'-acetyl-2-chloro-2'-deoxy-5'-adenylic acid, monosodium salt, are presented in Table I.

For data set [5], the system named is Colon 36. As to the kind of experiment: tumor growth delay assay, Colon 36. It counts as in vivo, mouse (CD2F1 hybrid). Also noted: key to Rating: Tx: Toxic; ++++: High Activity; +++: Marked Activity; ++: Moderate Activity; +: Slight Activity; -: Inactive; UT: Unsatisfactory Test. Particulars: 9.5 mg/kg (dose of greatest activity), IP. The method, then:
as §1, §2, §3, §4, §5, §6, §7

Where [6] appears, read: difference in days to reach 1000 mg.

Molecules are shown by their SMILES. ≈ marks a conversion by molar mass, not a printed value.

In general, solubility refers to the dissolved amount per volume that the medium holds. Turning to `Nc1nc(Cl)nc2c1ncn2[C@H]1C[C@H](O)[C@@H](CO)O1` [2-chloro-2'-deoxyadenosine], the “water solubility (in words)” value in data set [1] is “sparingly soluble in water”. Besides, in data set [1] (in water), the solubility was about 1000 µg/mL (≈ 3.5 mM). For the same compound, the “antileukemic and immunosuppressive activity” value in data set [2] is “antileukemic and immunosuppressive activity”.

As to `CC(=O)O[C@H]1C[C@H](n2cnc3c(N)nc(Cl)nc32)O[C@@H]1COP(=O)([O-])O.O.[Na+]` [Example 1, 2-Chloro-2'-deoxy-5'-adenylic Acid, 3'-acetate, Monosodium Salt, Monohydrate], the Rating entry in data set [3] is reported as “+”; in data set [5] it was “++”. The T/C is 12.9 in data set [3] (setting [6]) and 14.0 in data set [5] (setting [6]). The “Net Kill” value in data set [3] (net logs of cell kill) is 0.4; in data set [5] (net logs of cell kill), 0.6. Besides, the “% T/C Animals (1)” value in data set [4] (48 mg/kg, >125 significant) was 124%; in data set [4] (77 mg/kg, >125 significant), 126%; in data set [4] (124 mg/kg), “Tx”; in data set [4] (200 mg/kg) it was “Tx”. Also, the “% T/C Animals (2)” value stood at 149% in data set [4] (48 mg/kg, >125 significant); 112% in data set [4] (77 mg/kg, >125 significant); 87% in data set [4] (124 mg/kg, >125 significant).
